Measurements as given in the OPERA property sets (Mansouri et al. 2018).

Work on `O=C(O)C(F)(F)C(F)(F)C(F)(F)C(F)(F)C(F)(F)C(F)(F)F` yielded a boiling point of 177 °C and a log10 vapour pressure (mmHg) of -0.876.
Molecule `CCC(C(=O)O)C(=O)O` has a melting point of 114 °C.
`CCCNc1ccccc1` showed a boiling point of 222 °C.
`CCCCCCCCCC=CC(=O)O` showed a melting point of 17.1 °C.
Molecule `FC(F)CBr` has a boiling point of 57.3 °C and a melting point of -75 °C.
With `COc1c(Cl)ccc(Cl)c1Cl` the boiling point was 227 °C, the log10 Henry constant (atm·m³/mol) was -3.54 and the melting point was 45 °C.
`C#CCOC` showed a boiling point of 63 °C.
`CCC1Nc2cc(Cl)c(S(N)(=O)=O)cc2S(=O)(=O)N1` (configuration not stated) gave a melting point of 270 °C.
With `CC(C)=C1CC[C@@H](C)CC1=O` the boiling point was 224 °C and the log10 vapour pressure (mmHg) was -0.91.
For `Nc1cccc2cccc(S(=O)(=O)O)c12`, the ready biodegradability was “not readily biodegradable”.
With `CS(C)(=O)=O` the boiling point was 238 °C and the melting point was 109 °C.
For `CN1C(=O)CCS(=O)(=O)C1c1ccc(Cl)cc1` (configuration not stated), the melting point was 116 °C.
For `CNC1(c2ccccc2Cl)CCCCC1=O.Cl` (configuration not stated), the melting point was 262 °C.
For `CCCCCCF`, the boiling point was 91.5 °C, the log10 vapour pressure (mmHg) was 1.76 and the melting point was -103 °C.
Work on `O=C(O)CC[N+](=O)[O-]` yielded a melting point of 62 °C.
`CCCOc1ccc([N+](=O)[O-])cc1N` showed a melting point of 49 °C.
With `CCCCCCCC(=O)OCC(COC(=O)CCCCCCC)OC(=O)CCCCCCC` the melting point was 10 °C.
With `N#CCCCCC#N` the boiling point was 295 °C, the log10 vapour pressure (mmHg) was -3.17 and the melting point was 1 °C. For the same molecule, the ready biodegradability was “readily biodegradable”.
For `COc1ccc(N)c(OC)c1`, the melting point was 33.5 °C.
In the case of `COC(=O)[C@@H](C)N(C(=O)c1ccccc1)c1ccc(F)c(Cl)c1`, the log10 vapour pressure (mmHg) was -5.12.
Molecule `O=C(O)c1cccc(C(=O)O)c1O` has a melting point of 244 °C.
With `CCCCOCN(C(=O)CCl)c1c(CC)cccc1CC` the log10 Henry constant (atm·m³/mol) was -7.29, the log10 Koc (L/kg) was 2.86 and the log10 vapour pressure (mmHg) was -5.54. It also gave a melting point of -2.8 °C.
For `CC1=CC2CC1C1C(=O)OC(=O)C21` (configuration not stated), the ready biodegradability was “not readily biodegradable”.
For `Clc1cc(Cl)c2c(oc3ccc(Cl)c(Cl)c32)c1Cl`, the melting point was 210 °C.
Work on `Nc1nc(N)c2nc(-c3ccccc3)c(N)nc2n1` yielded a melting point of 316 °C.
In the case of `COC(=O)Nc1nc2ccc(C(=O)c3ccc(F)cc3)cc2[nH]1`, the melting point was 260 °C.
`Cc1cc(C)c(C)c(C)c1C` showed a boiling point of 232 °C, a log10 vapour pressure (mmHg) of -1.46 and a melting point of 54.5 °C.
`N#Cc1cccc(Br)c1` gave a boiling point of 225 °C.
In the case of `C[C@H]1CC[C@@H]2[C@@H](C)[C@H]3[C@H](C[C@H]4[C@@H]5CC=C6C[C@@H](O)CC[C@]6(C)[C@H]5CC[C@]34C)N2C1`, the melting point was 218 °C.
`Cc1cc2cccc(C)c2cc1C` gave a boiling point of 285 °C.
Work on `Brc1nccs1` yielded a boiling point of 171 °C.
Molecule `CCCCCCCCS` has a boiling point of 199 °C, a log10 vapour pressure (mmHg) of -0.372 and a melting point of -49.2 °C.
Work on `Clc1cc2c(Cl)c(Cl)c(Cl)cc2c(Cl)c1Cl` yielded a log10 Koa of 9.58 and a log10 vapour pressure (mmHg) of -6.46.
Work on `FC(F)(F)C(F)(F)C(F)(F)C(F)(F)C(F)(F)C(F)(F)Br` yielded a boiling point of 98 °C.
`Cc1ccc2ncccc2c1` showed a boiling point of 259 °C, a log10 vapour pressure (mmHg) of -2.19 and a melting point of -22 °C.
For `Cc1ccc(C(C)C)cc2c(C)ccc1-2`, the melting point was 31.5 °C.
In the case of `CCC(CC)(CC)CC`, the boiling point was 146 °C, the log10 vapour pressure (mmHg) was 0.863 and the melting point was -33.1 °C.
For `Cc1cccc(C(=O)O)c1C`, the melting point was 146 °C.
For `CCCCCCCCCCCCCCCCCCC(C)c1ccccc1` (configuration not stated), the melting point was 29 °C.
With `C=Cc1cccc([N+](=O)[O-])c1` the melting point was -10 °C and the ready biodegradability was “not readily biodegradable”.
`O=C1OC2(OC=C(c3ccccc3)C2=O)c2ccccc21` (configuration not stated) gave a melting point of 154 °C.
In the case of `COc1c(Cl)c(Cl)c(Cl)c(Cl)c1OC`, the melting point was 90 °C.
Molecule `C[C@]12CC[C@H](O)C[C@H]1CC[C@@H]1[C@@H]2CC[C@]2(C)[C@@H](C3=CC(=O)OC3)[C@@H](O)C[C@]12O` has a melting point of 234 °C.
Molecule `CC1(C)S[C@@H]2[C@H](NC(=O)C3(N)CCCCC3)C(=O)N2[C@H]1C(=O)O` has a melting point of 182 °C.
For `CC(=O)C1C(=O)C=C(C)OC1=O` (configuration not stated), the boiling point was 270 °C, the log10 vapour pressure (mmHg) was -2.9 and the melting point was 109 °C. The ready biodegradability was “readily biodegradable”.
With `CCC(=O)Cl` the boiling point was 80 °C and the melting point was -94 °C.
For `Oc1ccc(Cc2ccc(O)cc2)cc1`, the melting point was 162 °C and the ready biodegradability was “not readily biodegradable”.
In the case of `C[C@H]1[C@H](C)CC[C@]2(C(=O)O)CC[C@]3(C)C(=CC[C@@H]4[C@@]5(C)CC[C@H](O)C(C)(C)[C@@H]5CC[C@]43C)[C@H]12`, the melting point was 284 °C.
`CCCCCCCCOC(=O)CC` showed a boiling point of 228 °C and a melting point of -42.6 °C.
`CCCCCCCCCCCCC(CCCCCCCCCCC)CCCCCCCCCCCC` showed a melting point of 9.7 °C.
Molecule `COc1ccc(Br)cc1OC` has a boiling point of 254 °C.
Molecule `CCOP(=S)(OCC)Oc1ncn(-c2ccccc2)n1` has a log10 vapour pressure (mmHg) of -5.54.
With `ClC(Cl)I` the boiling point was 132 °C.
Work on `COCCC(=O)OC` yielded a boiling point of 143 °C.
`CCc1cc(Cc2cc(CC)cc(C(C)(C)C)c2O)c(O)c(C(C)(C)C)c1` showed a melting point of 120 °C.
Molecule `Cc1c(C)c(O)c(C)c(C)c1O` has a melting point of 233 °C.
Molecule `Oc1ccc2[nH]ccc2c1` has a melting point of 108 °C.
For `CCN(CC)CCCC(C)N` (configuration not stated), the boiling point was 201 °C.
Molecule `Clc1ccc(C/C(=C\CN2CCCC2)c2ccccc2)cc1` has a melting point of 48.5 °C.
For `Clc1cc2c(cc1Cl)Oc1c(cc(Cl)c(Cl)c1Cl)O2`, the log10 Koa was 10.6, the log10 vapour pressure (mmHg) was -9.36 and the melting point was 240 °C.
For `CC(C)=C(C)Cl`, the boiling point was 96 °C.
`C=C(Cl)C(C)Cl` (configuration not stated) gave a boiling point of 112 °C.
For `CC(=O)c1ccc(C)cc1`, the boiling point was 226 °C, the melting point was 28 °C and the ready biodegradability was “readily biodegradable”.
For `CC(=O)[C@H]1CC[C@H]2[C@@H]3CC[C@H]4C[C@H](O)CC[C@]4(C)[C@H]3CC[C@]12C`, the melting point was 174 °C.
In the case of `C/C=C/C(=O)OCC`, the boiling point was 137 °C.
Molecule `CCCCCCCCCCCC[C@H](C)O` has a boiling point of 284 °C and a melting point of 34 °C.
Work on `Clc1ccc(Oc2cc(Cl)ccc2Cl)cc1` yielded a log10 vapour pressure (mmHg) of -3.76.
